The test system of series [1] is MeCP2 KO mouse primary cortical neurons. Kind of series: Morphological recovery of MeCP2 KO primary neuron: neurite outgrowth (MAP2 immunostaining, DIV5). The class given is cell-based. Conditions: Test compound 80 and 2000 nM from DIV1, analysed at DIV5; BDNF 50 ng/ml as comparator; FIG. 1. The protocol:
(§1) MeCP2 KO mouse primary cortical neurons were cultured at PO and morphological change was analyzed via immunocytochemistry.
BDNF (50 ng/ml) or Test compound (80 and 2000 nM) was treated from DIV1 to indicated days. At DIV5, the neurite outgrowth was analyzed with MAP2 immunostaining for analysis of neurite formation.

Series [2] has the same test system. In words: Morphological recovery of MeCP2 KO primary neuron: synaptogenesis and soma size (Synapsin-1, MAP2, Hoechst, DIV14). Conditions: Test compound 1000 nM from DIV1, analysed at DIV14. The class given is cell-based. The procedure: as §1
BDNF (50 ng/ml) or Test compound (1000 nM) was treated from DIV1 to indicated days. At DIV14, synaptogenesis and soma size were analyzed with Synapsin-1, MAP2 immunostaining and nuclear staining with Hoechst.

Series [3] relates to MeCP2 knockout mice (Null). Kind of series: Survival rate test in MeCP2 knockout mice (Null). The class given is in vivo, mouse. The protocol: Vehicle Null group: vehicle (0.9% saline, 10 ml/kg)
Test compound Null group: 100 mg/kg, po in 0.9% saline
About 5 week old Null mice were treated with daily oral injections of the vehicle or Test compound. MeCP2 knockout mice (Null) survival rate test was conducted until all animals were dead.
ILS ([…])%: 100×(median survival days of test group-median survival days of vehicle group)/median survival days of vehicle group (FIG. 4).

Series [4] is described as follows: Body weight change in MeCP2 KO mice (HET). The class given is in vivo, mouse. Conditions: 100 mg/kg po daily from about 5 weeks to 16 weeks old, FIG. 5. The procedure: Vehicle WT group: vehicle (0.9% saline, 10 ml/kg)
Vehicle HET group: vehicle (0.9% saline, 10 ml/kg)
Test compound HET group: 100 mg/kg, po in 0.9% saline
About 5 week old WT and HET mice were treated with daily oral injections of the vehicle or Test compound. Treatment conducted until the mice became 16 weeks old.

Series [5] concerns MeCP2 KO mice (HET). Kind of series: Accelerating rotarod test in MeCP2 KO mice (HET). Particulars: accelerating speed 0-40 rpm over 5 min, compared to vehicle-treated HET mice, FIG. 6. The class given is in vivo, mouse. The source says:
The rotarod test is widely used to evaluate the motor coordination of rodents, and is especially sensitive in detecting cerebellar dysfunction. The motor performance on the rotarod can be influenced by several factors, such as motor coordination, learning and cardiopulmonary endurance. Since several studies have shown that basal ganglia are essential in motor skill learning of serial motor sequence. The test measures parameters such as riding time (seconds) or endurance (RPM).
Mice were placed on the rotarod apparatus (Ugo basile, Italy) consisting of a rod that rotates at a constant or variable and accelerating speed of 4 rpm. Once a mouse loses its balance and falls onto an underlying platform, the timer automatically stops. Mice were exposed to the apparatus for 5 min training at a constant speed (4 rpm) and placed back on the rod after each fell. After a rest period of at least 1 hr, animals were placed back on the rotarod apparatus for testing. Once all animals in a test session were loaded on the rod, the rotarod apparatus was placed on accelerating speed (0-40 rpm) over 5 min and then the first falling time was recorded. The test was repeated three consecutive times per animal. For each test session, the RPM score at time of fall off the rod were recorded.

In series [6] the test system is MeCP2 KO mice (HET). Kind of series: Hindlimb clasping test in MeCP2 KO mice (HET). The class given is in vivo, mouse. Particulars: 100 mg/kg, compared to vehicle-treated HET mice, FIG. 7.

As for `NC(=O)OC[C@H](N)Cc1ccccc1` [Test compound, (R)-(beta-amino-benzenepropyl) carbamate], the “neurite length (neurite outgrowth)” value in series [1] is “significantly enhanced the neurite length to a level similar to that of BDNF”. Moreover, the synaptogenesis result in series [2] (FIG. 2) was “significantly enhanced”. Besides, in series [2] (FIG. 3), the soma size entry is “significantly enhanced”. Besides, the “increase of ILS %” value in series [3] (100 mg/kg po daily from about 5 weeks old, compared to vehicle-treated Null mice, FIG. 4) came out at 42.7%. For the same compound, the life span entry in series [3] (100 mg/kg po daily, vs vehicle, P<0.0046, Log lank test) is reported as “significant enhancement of life span”. Also, the body weight change result in series [4] is on record as “did not affect the body weight change”. In addition, in the series on MeCP2 KO mice (HET) [5], the “speed at fall (RPM score)” value is recorded as “fell at higher speeds” and the “time to fall off from the rod” value is on record as “took more time to fall off from the rod”. Moreover, the clasping entry with MeCP2 KO mice (HET) [6] is on record as “clasped less than vehicle-treated HET mice”.
